Measured values reported in ChEMBL document CHEMBL5233291, “Calamene-Type Sesqui-, Mero-, and Bis-sesquiterpenoids from Cultures of Heimiomyces sp., a Basidiomycete Collected in Africa” (J Nat Prod, 2023).
Active and inactive are the calls of the source.

Experiments:
Type in all cases: functional, organism-based
[1] = test system: Mucor hiemalis; experiment: Antifungal activity against Mucor hiemalis DSM 2656 assessed as inhibition of fungal growth incubated for overnight by serial dilution assay
[2] = test system: Wickerhamomyces anomalus; experiment: Antifungal activity against Pichia anomala DSM 6766 assessed as inhibition of fungal growth incubated for overnight by serial dilution assay
[3] = test system: Escherichia coli; experiment: Antibacterial activity against Escherichia coli DSM 1116 assessed as inhibition of bacterial growth incubated for overnight by serial dilution assay
[4] = test system: Candida albicans; experiment: Antifungal activity against Candida albicans DSM 1665 assessed as inhibition of fungal growth incubated for overnight by serial dilution assay
[5] = test system: Bacillus subtilis; experiment: Antibacterial activity against Bacillus subtilis DSM 10 assessed as inhibition of bacterial growth incubated for overnight by serial dilution assay
[6] = test system: Schizosaccharomyces pombe; experiment: Antifungal activity against Schizosaccharomyces pombe DSM 70572 assessed as inhibition of fungal growth incubated for overnight by serial dilution assay
[7] = test system: Rhodotorula glutinis; experiment: Antifungal activity against Rhodotorula glutinis DSM 10134 assessed as inhibition of fungal growth incubated for overnight by serial dilution assay
[8] = test system: Acinetobacter baumannii; experiment: Antibacterial activity against Acinetobacter baumannii […] DSM 30008 assessed as inhibition of bacterial growth incubated for overnight by serial dilution assay
[9] = test system: Staphylococcus aureus; experiment: Antibacterial activity against Staphylococcus aureus DSM 346 assessed as inhibition of bacterial growth incubated for overnight by serial dilution assay
[10] = test system: Mycolicibacterium smegmatis; experiment: Antibacterial activity against Mycobacterium smegmatis ATCC 700084 assessed as inhibition of bacterial growth incubated for overnight by serial dilution assay
[11] = test system: Chromobacterium violaceum; experiment: Antibacterial activity against Chromobacterium violaceum DSM 30191 assessed as inhibition of bacterial growth incubated for overnight by serial dilution assay
[12] = test system: Pseudomonas aeruginosa; experiment: Antibacterial activity against Pseudomonas aeruginosa DSM PA14 assessed as inhibition of bacterial growth incubated for overnight by serial dilution assay

Measured: Activity

O=c1cc(O)cc(C2c3c(cc(/C=C/c4ccc(O)c(O)c4)oc3=O)OC2c2ccc(O)c(O)c2)o1 (stereo not given)
inactive: [1] | [2] | [3] | [4] | [5] | [6] | [7] | [8] | [9] | [10] | [11] | [12]

O=c1cc(O)cc(/C=C/c2ccc(O)c(O)c2)o1
inactive: [1] | [2] | [3] | [4] | [5] | [6] | [7] | [8] | [9] | [10] | [11] | [12]

CC(C)[C@H]1CC[C@H](C)c2c(O)c(O)c3c(c21)C1=C(OC3)C(=O)C2=C(OCc3c(O)c(O)c4c(c32)[C@@H](C(C)C)CC[C@@H]4C)C1=O
inactive: [1] | [2] | [3] | [4] | [5] | [6] | [7] | [8] | [9] | [10] | [11] | [12]

CC(C)[C@H]1CC[C@H](C)c2c(O)c(O)c(CO)c(C3=C(O)C(=O)C4=C(OCc5c(O)c(O)c6c(c54)[C@@H](C(C)C)CC[C@@H]6C)C3=O)c21
inactive: [1] | [2] | [3] | [4] | [5] | [6] | [7] | [8] | [9] | [10] | [11] | [12]

CC(C)[C@H]1CC[C@H](C)c2c(O)c(O)c(C=O)c(C3=C(O)C(=O)C4=C(OCc5c(O)c(O)c6c(c54)[C@@H](C(C)C)CC[C@@H]6C)C3=O)c21
inactive: [1] | [2] | [3] | [4] | [5] | [6] | [7] | [8] | [9] | [10] | [11] | [12]

CC(C)[C@H]1CC[C@H](C)C2=C1C=C(C(=O)O)CC2
inactive: [1] | [2] | [3] | [4] | [5] | [6] | [7] | [8] | [9] | [10] | [11] | [12]

CC(C)[C@H]1CC[C@H](C)c2c(O)c(O)c(C=O)c(C3=C(O)C(=O)C(c4c(C=O)c(O)c(O)c5c4[C@@H](C(C)C)CC[C@@H]5C)=C(O)C3=O)c21
inactive: [1] | [2] | [3] | [4] | [5] | [6] | [7] | [8] | [9] | [10] | [11] | [12]

Cc1c(O)c(O)c(C(C)C)c2c1CCC(C(=O)O)=C2
inactive: [1] | [2] | [3] | [4] | [5] | [6] | [7] | [8] | [9] | [10] | [11] | [12]

CC(C)[C@H]1CC[C@H](C)c2c(O)c(O)c(C=O)c(C3=C(O)C(=O)C=C(O)C3=O)c21
inactive: [1] | [2] | [3] | [4] | [5] | [6] | [7] | [8] | [9] | [10] | [11] | [12]

CC1=C(O)C(=O)C(c2c(C=O)c(O)c(O)c3c2[C@@H](C(C)C)CC[C@@H]3C)=C(O)C1=O
inactive: [1] | [2] | [3] | [4] | [5] | [6] | [7] | [8] | [9] | [10] | [11] | [12]
